Source: PubChem BioAssay AID328 (DTP/NCI, 2004)
Several values for one entry are separate records, joined by “and”; a condition that tells them apart may be missing. Equal entries are not always repeated. Inconclusive results and toxic doses are left out.

Tested on: BDF1 mice, P388 leukemia ip, median survival T/C
Test: NCI In Vivo Anticancer Drug Screen. Data for tumor model P388 Leukemia (intraperitoneal) in B6D2F1 (BDF1) mice
Details: endpoint: median survival time, higher = longer survival
Summary of the method: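 Read-out is survival of treated animals expressed relative to the vehicle group, as a T/C ratio.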

[1] = dose: 25.0 mg/kg/injection, schedule: Q04DX003 (ip), vehicle: saline with Tween-80
[2] = dose: 50.0 mg/kg/injection, schedule: Q04DX003 (ip), vehicle: saline with Tween-80
[3] = dose: 100.0 mg/kg/injection, schedule: Q04DX003 (ip), vehicle: saline with Tween-80
[4] = dose: 200.0 mg/kg/injection, schedule: Q04DX003 (ip), vehicle: saline with Tween-80
[5] = dose: 50.0 mg/kg/injection, schedule: Q01DX009 (ip), vehicle: saline with Tween-80
[6] = dose: 100.0 mg/kg/injection, schedule: Q01DX009 (ip), vehicle: saline with Tween-80
[7] = dose: 12.5 mg/kg/injection, schedule: Q01DX009 (ip), vehicle: water
[8] = dose: 25.0 mg/kg/injection, schedule: Q01DX009 (ip), vehicle: water
[9] = dose: 25.0 mg/kg/injection, schedule: Q04DX003 (ip), vehicle: water
[10] = dose: 50.0 mg/kg/injection, schedule: Q01DX009 (ip), vehicle: water
[11] = dose: 50.0 mg/kg/injection, schedule: Q04DX003 (ip), vehicle: water

COc1cc(CN2CCCN(Cc3cc(OC)c(OC)c(OC)c3)C2c2ccc(N(CCCl)CCCl)cc2C)cc(OC)c1OC
T/C (dose: 50.0 mg/kg/injection, schedule: Q04DX003 (ip), vehicle: saline): 109 % of control
T/C (dose: 100.0 mg/kg/injection, schedule: Q04DX003 (ip), vehicle: saline): 104 % of control
T/C (dose: 200.0 mg/kg/injection, schedule: Q04DX003 (ip), vehicle: saline): 90 % of control
T/C (dose: 400.0 mg/kg/injection, schedule: Q04DX003 (ip), vehicle: saline): 109 % of control

CC(=O)Nc1cc(C)cc(CO)c1C
T/C [1]: 86 % of control
T/C [2]: 96 % of control
T/C [3]: 93 % of control
T/C [4]: 88 % of control

CSc1cccc(NC(=O)N2CCN(c3ccccc3)CC2)c1
T/C (dose: 12.5 mg/kg/injection, schedule: Q01DX009 (ip), vehicle: DMSO): 93 % of control
T/C (dose: 25.0 mg/kg/injection, schedule: Q01DX009 (ip), vehicle: DMSO): 94 % of control

CC#CC(=O)SCCNC(=O)CC
T/C (dose: 12.5 mg/kg/injection, schedule: Q04DX003 (ip), vehicle: saline with Tween-80): 100 % of control
T/C [1]: 104 % of control
T/C [2]: 95 % of control and 100 % of control

O=C(O)c1ccccc1P12(OC(=O)c3ccccc31)OC(=O)c1ccccc12
T/C (dose: 25.0 mg/kg/injection, schedule: Q01DX009 (ip), vehicle: saline with Tween-80): 99 % of control
T/C [5]: 99 % of control
T/C [6]: 90 % of control

O=C(O)CCCCCCCCC(=O)O
T/C [5]: 98 % of control
T/C [6]: 98 % of control
T/C (dose: 200.0 mg/kg/injection, schedule: Q01DX009 (ip), vehicle: saline with Tween-80): 94 % of control
T/C (dose: 400.0 mg/kg/injection, schedule: Q01DX009 (ip), vehicle: saline with Tween-80): 93 % of control

Clc1ccc(-c2cc(=[N+]3CCOCC3)ss2)cc1
T/C [7]: 118 % of control
T/C [8]: 102 % of control
T/C [9]: 94 % of control
T/C [10]: 111 % of control
T/C [11]: 100 % of control
T/C (dose: 100.0 mg/kg/injection, schedule: Q01DX009 (ip), vehicle: water): 111 % of control
T/C (dose: 100.0 mg/kg/injection, schedule: Q04DX003 (ip), vehicle: water): 90 % of control
T/C (dose: 200.0 mg/kg/injection, schedule: Q04DX003 (ip), vehicle: water): 110 % of control

CN1CCCCCC1
T/C (dose: 150.0 mg/kg/injection, schedule: Q01DX009 (ip), vehicle: saline): 95 % of control
T/C (dose: 225.0 mg/kg/injection, schedule: Q01DX009 (ip), vehicle: saline): 104 % of control
T/C (dose: 335.0 mg/kg/injection, schedule: Q01DX009 (ip), vehicle: saline): 86 % of control

C/C=C/C=C/NC(=O)Oc1ccccc1
T/C [3]: 91 % of control
T/C [4]: 94 % of control
T/C (dose: 400.0 mg/kg/injection, schedule: Q04DX003 (ip), vehicle: saline with Tween-80): 116 % of control

O=S1ON=C(C2CCC(C3=NOS(=O)O3)C2)O1 (configuration not stated)
T/C (dose: 25.0 mg/kg/injection, schedule: Q01DX005 (ip), vehicle: saline with Tween-80): 97 % of control
T/C (dose: 50.0 mg/kg/injection, schedule: Q01DX005 (ip), vehicle: saline with Tween-80): 104 % of control
T/C (dose: 100.0 mg/kg/injection, schedule: Q01DX005 (ip), vehicle: saline with Tween-80): 114 % of control

NNCc1c(C(=O)O)oc2ccccc12
T/C [5]: 99 % of control
T/C [6]: 100 % of control

C=CCNc1ccc(C)cc1
T/C (dose: 12.5 mg/kg/injection, schedule: Q01DX009 (ip), vehicle: Klucel (hydroxypropylcellulose) (HPC)): 110 % of control
T/C (dose: 25.0 mg/kg/injection, schedule: Q01DX009 (ip), vehicle: Klucel (hydroxypropylcellulose) (HPC)): 116 % of control
T/C (dose: 50.0 mg/kg/injection, schedule: Q01DX009 (ip), vehicle: Klucel (hydroxypropylcellulose) (HPC)): 116 % of control
T/C [6]: 122 % of control

O.O=c1[nH]cc(Cl)c(=O)[nH]1.[NH2-].[NH2-].[Pt+2]
T/C (dose: 6.25 mg/kg/injection, schedule: Q01DX009 (ip), vehicle: water): 118 % of control
T/C [7]: 155 % of control
T/C (dose: 12.5 mg/kg/injection, schedule: Q04DX003 (ip), vehicle: water): 123 % of control
T/C [8]: 229 % of control and 171 % of control
T/C [9]: 166 % of control
T/C [10]: 192 % of control
T/C [11]: 200 % of control

CCCCCCCCCCCCCCCCCSCCCCCSCCCCCCCCCCCCCCCCC
T/C (dose: 100.0 mg/kg/injection, schedule: Q01DX001 (ip), vehicle: saline with Tween-80): 90 % of control
T/C (dose: 400.0 mg/kg/injection, schedule: Q01DX001 (ip), vehicle: saline with Tween-80): 86 % of control
